Test results: ChEMBL document CHEMBL1152878, “N-Hydroxy-1,2-disubstituted-1H-benzimidazol-5-yl acrylamides as novel histone deacetylase inhibitors: design, synthesis, SAR studies, and in vivo antitumor activity” (Bioorg Med Chem Lett, 2009)

Tests used:
[1] = Solubility at pH 6.5; type: physicochemical; conditions: buffer
[2] = Lipophilicity, log D at pH 7.3; type: physicochemical; conditions: buffer
HCT-116 [3] = test: Antitumor activity against human HCT116 cells xenografted in athymic mouse assessed as tumor growth inhibition at 200 mg/kg, po qd for 21 days measured on day 21; type: functional; conditions: HCT-116, 504 h, read-out: TGI
Mus musculus [4] = test: Toxicity in athymic xenografted with human HCT116 cells mouse assessed as maximum body weight loss at 200 mg/kg, po qd for 21 days measured on day 7; type: organism-based, HCT-116; set-up: dose 200 mg/kg, route oral; conditions: in vivo, 504 h
HCT-116 [5] = test: Antitumor activity against human HCT116 cells xenografted in athymic mouse assessed as tumor growth inhibition at 100 mg/kg, po qd for 21 days measured on day 21; type: functional; conditions: HCT-116, 504 h, read-out: TGI
Mus musculus [6] = test: Toxicity in athymic mouse xenografted with human HCT116 cells assessed as maximum body weight loss at 100 mg/kg, po qd for 21 days; type: organism-based, HCT-116; set-up: dose 100 mg/kg, route oral; conditions: in vivo, 504 h
[7] = Oral bioavailability in mouse at 50 mg/kg; type: ADME, organism-based; conditions: in vivo
[8] = Cmax in mouse at 50 mg/kg, po; type: ADME, organism-based; set-up: dose 50 mg/kg, route oral; conditions: in vivo
Histone deacetylase 3 = Histone deacetylase 3 (Homo sapiens, UniProt O15379); test: Inhibition of recombinant HDAC3 by fluorimetric assay
Histone deacetylase 3, sequence (O15379 whole entry): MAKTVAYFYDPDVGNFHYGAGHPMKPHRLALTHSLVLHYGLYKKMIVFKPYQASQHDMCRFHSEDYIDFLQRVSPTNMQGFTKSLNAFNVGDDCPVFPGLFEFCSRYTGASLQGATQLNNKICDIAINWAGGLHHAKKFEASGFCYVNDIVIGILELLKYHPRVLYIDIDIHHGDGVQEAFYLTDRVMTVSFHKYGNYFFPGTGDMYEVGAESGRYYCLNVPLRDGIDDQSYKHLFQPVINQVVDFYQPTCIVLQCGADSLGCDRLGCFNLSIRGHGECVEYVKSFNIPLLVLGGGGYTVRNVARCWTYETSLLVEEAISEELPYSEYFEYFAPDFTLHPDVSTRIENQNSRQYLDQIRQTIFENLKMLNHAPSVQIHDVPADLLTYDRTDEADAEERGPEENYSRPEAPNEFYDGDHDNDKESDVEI

Histone deacetylase 4 = Histone deacetylase 4 (Homo sapiens, UniProt P56524); test: Inhibition of recombinant HDAC4 by fluorimetric assay
Histone deacetylase 4, sequence (P56524 whole entry): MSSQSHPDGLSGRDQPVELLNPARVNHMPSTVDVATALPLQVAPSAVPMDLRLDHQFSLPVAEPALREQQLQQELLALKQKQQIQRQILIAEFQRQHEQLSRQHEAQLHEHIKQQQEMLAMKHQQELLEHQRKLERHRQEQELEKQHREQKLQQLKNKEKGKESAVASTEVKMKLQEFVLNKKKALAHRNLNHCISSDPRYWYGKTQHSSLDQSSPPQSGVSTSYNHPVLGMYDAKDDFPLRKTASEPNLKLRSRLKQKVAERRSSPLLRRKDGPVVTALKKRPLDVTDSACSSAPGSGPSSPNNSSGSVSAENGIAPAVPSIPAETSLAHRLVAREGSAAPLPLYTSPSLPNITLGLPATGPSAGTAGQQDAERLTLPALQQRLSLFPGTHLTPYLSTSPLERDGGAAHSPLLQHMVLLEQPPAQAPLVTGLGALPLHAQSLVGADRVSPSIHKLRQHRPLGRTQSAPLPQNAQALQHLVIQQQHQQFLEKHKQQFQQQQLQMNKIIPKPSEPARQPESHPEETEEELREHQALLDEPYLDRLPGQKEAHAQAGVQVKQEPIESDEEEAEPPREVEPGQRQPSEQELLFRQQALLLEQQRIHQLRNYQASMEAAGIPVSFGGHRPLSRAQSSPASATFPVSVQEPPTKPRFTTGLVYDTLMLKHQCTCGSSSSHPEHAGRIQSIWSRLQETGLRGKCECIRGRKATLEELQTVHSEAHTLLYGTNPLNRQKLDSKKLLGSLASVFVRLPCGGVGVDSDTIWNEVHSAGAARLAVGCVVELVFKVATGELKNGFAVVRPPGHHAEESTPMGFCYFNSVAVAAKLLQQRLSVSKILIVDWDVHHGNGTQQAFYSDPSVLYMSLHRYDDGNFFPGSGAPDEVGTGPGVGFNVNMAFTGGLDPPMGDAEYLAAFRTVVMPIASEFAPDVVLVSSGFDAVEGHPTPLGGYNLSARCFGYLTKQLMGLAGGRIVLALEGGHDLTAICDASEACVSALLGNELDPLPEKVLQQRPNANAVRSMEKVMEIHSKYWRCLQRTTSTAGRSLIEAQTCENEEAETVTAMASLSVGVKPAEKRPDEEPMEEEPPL

Histone deacetylase 5 = Histone deacetylase 5 (Homo sapiens, UniProt Q9UQL6); test: Inhibition of recombinant HDAC5 by fluorimetric assay
Histone deacetylase 5, sequence (Q9UQL6 whole entry): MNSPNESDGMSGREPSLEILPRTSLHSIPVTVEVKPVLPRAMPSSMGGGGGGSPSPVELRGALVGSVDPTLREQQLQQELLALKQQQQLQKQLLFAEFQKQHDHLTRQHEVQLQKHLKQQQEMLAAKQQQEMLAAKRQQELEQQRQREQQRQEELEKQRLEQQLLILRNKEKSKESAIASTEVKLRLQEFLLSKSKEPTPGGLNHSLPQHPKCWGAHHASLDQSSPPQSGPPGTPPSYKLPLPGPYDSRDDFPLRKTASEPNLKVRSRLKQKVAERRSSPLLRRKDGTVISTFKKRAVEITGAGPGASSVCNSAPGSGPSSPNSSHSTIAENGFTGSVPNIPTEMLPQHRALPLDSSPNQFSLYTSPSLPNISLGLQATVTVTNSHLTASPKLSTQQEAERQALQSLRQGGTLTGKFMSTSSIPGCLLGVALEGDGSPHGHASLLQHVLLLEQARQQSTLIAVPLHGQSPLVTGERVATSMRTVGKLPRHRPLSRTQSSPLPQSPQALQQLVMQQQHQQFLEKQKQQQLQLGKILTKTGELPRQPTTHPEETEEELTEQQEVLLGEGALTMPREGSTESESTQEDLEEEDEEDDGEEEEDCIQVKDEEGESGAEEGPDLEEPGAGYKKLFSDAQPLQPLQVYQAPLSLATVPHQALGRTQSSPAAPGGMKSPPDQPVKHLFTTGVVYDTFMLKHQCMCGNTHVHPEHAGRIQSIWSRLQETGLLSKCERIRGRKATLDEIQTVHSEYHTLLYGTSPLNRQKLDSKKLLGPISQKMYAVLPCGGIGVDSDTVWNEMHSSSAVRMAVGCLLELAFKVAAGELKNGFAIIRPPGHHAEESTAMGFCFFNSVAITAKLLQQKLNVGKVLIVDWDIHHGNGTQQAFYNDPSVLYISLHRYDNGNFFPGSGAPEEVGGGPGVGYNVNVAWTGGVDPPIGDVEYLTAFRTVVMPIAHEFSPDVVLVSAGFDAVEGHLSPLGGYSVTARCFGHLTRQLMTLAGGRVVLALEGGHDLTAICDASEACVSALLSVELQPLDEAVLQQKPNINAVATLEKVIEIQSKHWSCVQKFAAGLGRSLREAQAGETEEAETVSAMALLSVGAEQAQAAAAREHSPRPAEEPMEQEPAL

[9] = biological target: T1, Protein deacetylase HDAC6 (Homo sapiens, UniProt Q9UBN7); test: Inhibition of recombinant HDAC6 by fluorimetric assay
T1 sequence (Q9UBN7 whole entry): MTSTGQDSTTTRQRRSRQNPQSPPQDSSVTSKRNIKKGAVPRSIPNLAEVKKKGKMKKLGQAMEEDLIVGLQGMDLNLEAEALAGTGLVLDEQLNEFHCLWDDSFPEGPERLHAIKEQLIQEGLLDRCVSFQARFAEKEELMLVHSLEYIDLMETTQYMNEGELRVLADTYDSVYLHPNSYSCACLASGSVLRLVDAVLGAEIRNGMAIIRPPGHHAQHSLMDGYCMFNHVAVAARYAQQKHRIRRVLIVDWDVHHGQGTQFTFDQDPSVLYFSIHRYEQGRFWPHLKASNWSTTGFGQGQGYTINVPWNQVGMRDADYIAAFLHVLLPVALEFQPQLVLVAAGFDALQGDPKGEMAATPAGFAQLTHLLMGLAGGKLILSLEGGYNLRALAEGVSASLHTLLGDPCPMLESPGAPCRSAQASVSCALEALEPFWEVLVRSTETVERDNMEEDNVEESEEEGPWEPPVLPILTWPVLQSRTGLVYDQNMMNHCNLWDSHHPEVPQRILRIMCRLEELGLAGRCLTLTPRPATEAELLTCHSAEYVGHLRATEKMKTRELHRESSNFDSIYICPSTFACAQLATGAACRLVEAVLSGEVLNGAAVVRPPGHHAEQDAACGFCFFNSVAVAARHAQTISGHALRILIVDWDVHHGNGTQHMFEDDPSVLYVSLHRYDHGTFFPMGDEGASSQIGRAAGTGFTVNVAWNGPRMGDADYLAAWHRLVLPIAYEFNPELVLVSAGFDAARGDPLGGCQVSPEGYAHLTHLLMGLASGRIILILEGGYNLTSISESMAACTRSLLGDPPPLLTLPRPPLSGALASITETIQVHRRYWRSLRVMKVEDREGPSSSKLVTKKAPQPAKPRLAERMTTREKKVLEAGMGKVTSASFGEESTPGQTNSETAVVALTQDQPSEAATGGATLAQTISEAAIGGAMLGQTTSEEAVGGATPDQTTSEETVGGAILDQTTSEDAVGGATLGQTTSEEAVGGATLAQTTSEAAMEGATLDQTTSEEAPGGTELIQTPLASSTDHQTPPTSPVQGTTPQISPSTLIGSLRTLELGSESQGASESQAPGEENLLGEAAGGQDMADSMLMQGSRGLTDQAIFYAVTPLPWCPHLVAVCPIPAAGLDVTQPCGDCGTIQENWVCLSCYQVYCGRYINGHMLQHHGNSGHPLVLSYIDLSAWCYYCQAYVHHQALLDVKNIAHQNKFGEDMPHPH

Histone deacetylase 8 = biological target: T2, Histone deacetylase 8 (Homo sapiens, UniProt Q9BY41); test: Inhibition of recombinant HDAC8 by fluorimetric assay
T2 sequence (Q9BY41 whole entry): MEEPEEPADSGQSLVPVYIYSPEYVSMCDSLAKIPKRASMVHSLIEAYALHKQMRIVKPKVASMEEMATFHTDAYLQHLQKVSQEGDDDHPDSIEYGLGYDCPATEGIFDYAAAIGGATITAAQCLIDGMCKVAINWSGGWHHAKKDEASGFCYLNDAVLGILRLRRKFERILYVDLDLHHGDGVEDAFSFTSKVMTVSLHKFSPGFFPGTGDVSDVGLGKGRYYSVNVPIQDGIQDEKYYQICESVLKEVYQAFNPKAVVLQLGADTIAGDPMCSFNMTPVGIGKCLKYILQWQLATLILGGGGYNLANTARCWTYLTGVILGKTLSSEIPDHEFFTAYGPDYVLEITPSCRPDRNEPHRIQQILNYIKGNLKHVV

Histone deacetylase 9 = Histone deacetylase 9 (Homo sapiens, UniProt Q9UKV0); test: Inhibition of recombinant HDAC9 by fluorimetric assay
Histone deacetylase 9, sequence (Q9UKV0 whole entry): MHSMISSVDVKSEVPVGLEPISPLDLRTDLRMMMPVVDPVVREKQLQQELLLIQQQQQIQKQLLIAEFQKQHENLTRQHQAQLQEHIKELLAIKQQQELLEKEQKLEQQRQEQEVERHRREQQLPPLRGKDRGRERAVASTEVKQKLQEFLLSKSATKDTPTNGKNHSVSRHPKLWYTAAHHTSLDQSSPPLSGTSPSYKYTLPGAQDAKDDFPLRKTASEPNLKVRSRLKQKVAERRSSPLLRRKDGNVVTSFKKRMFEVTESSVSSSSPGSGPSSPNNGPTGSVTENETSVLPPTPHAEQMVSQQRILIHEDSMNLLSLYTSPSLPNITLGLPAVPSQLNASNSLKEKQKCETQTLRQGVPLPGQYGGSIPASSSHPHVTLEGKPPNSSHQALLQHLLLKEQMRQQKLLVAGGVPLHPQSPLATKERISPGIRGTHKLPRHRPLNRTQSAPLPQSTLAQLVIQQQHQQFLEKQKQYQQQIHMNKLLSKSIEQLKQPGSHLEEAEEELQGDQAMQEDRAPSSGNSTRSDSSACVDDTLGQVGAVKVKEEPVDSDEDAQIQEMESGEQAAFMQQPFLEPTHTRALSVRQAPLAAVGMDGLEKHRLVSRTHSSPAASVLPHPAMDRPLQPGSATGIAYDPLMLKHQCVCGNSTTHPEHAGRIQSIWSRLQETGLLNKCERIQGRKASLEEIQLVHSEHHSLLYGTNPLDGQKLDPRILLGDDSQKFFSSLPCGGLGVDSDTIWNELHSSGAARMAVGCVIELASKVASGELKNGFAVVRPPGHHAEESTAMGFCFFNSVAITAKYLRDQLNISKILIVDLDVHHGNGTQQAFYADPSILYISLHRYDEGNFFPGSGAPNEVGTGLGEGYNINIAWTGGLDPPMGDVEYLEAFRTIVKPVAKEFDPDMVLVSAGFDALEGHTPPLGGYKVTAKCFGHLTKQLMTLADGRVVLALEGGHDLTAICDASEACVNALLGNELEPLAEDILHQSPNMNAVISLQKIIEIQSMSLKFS

Histone deacetylase 11 = biological target: T3, Histone deacetylase 11 (Homo sapiens, UniProt Q96DB2); test: Inhibition of recombinant HDAC11 by fluorimetric assay
T3 sequence (Q96DB2 whole entry): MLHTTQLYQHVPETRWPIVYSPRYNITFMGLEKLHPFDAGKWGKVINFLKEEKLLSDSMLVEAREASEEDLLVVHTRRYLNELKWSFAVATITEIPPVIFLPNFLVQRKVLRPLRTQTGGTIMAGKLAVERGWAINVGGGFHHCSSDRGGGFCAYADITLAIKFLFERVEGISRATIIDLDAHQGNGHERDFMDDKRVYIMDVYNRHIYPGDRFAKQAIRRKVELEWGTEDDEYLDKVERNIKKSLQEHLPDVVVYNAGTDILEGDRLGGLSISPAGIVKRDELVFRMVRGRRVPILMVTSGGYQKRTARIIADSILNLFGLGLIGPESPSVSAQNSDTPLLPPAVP

COLO 205 = test: Antiproliferative activity against human COLO205 cells after 96 hrs by celltiter assay; type: functional, cell-based; conditions: COLO 205, 96 h
HCT-116 [10] = test: Antitumor activity against human HCT116 cells xenografted in athymic mouse assessed as tumor growth inhibition at 130 mg/kg, ip qd for 21 days measured on day 22; type: functional; conditions: HCT-116, ip, route intraperitoneal, read-out: TGI
Mus musculus [11] = test: Toxicity in athymic mouse xenografted with human HCT116 cells assessed as maximum body weight loss at 130 mg/kg, ip qd for 21 measured on day 19; type: organism-based, HCT-116; set-up: dose 130 mg/kg, route intraperitoneal; conditions: in vivo
[12] = Toxicity in ip dosed athymic mouse assessed as maximum tolerated dose; type: organism-based; conditions: in vivo
HCT-116 [13] = test: Antitumor activity against human HCT116 cells xenografted in athymic mouse assessed as tumor growth inhibition at 70 mg/kg, ip qd for 21 days measured on day 22; type: functional; conditions: HCT-116, ip, route intraperitoneal, read-out: TGI
Mus musculus [14] = test: Toxicity in athymic mouse xenografted with human HCT116 cells assessed as maximum body weight loss at 70 mg/kg, ip qd for 21 days measured on day 15; type: organism-based, HCT-116; set-up: dose 70 mg/kg, route intraperitoneal; conditions: in vivo, 504 h

## Cl.O=C(/C=C/c1ccc2c(c1)nc(CCc1ccccc1)n2CCN1CCCC1)NO
[1]
  solubility: 1600 µg/mL
[2]
  logD: 2.1

## O=C(/C=C/c1ccc2c(c1)nc(CCc1ccccc1)n2CCN1CCCC1)NO
HCT-116 [3]
  inhibition in vivo at 200 mg/kg: 78%
Mus musculus [4]
  Activity: 5.7%
HCT-116 [5]
  inhibition in vivo at 100 mg/kg: 43%
Mus musculus [6]
  Activity: Non-toxic
[7]
  bioavailability: 13%
[8]
  Cmax: 920 nM
Histone deacetylase 3
  Ki: 12.5 nM
Histone deacetylase 4
  Ki: 9.6 nM
Histone deacetylase 5
  Ki: 17.2 nM
[9]
  Ki: 20.6 nM
Histone deacetylase 8
  Ki: 82 nM
Histone deacetylase 9
  Ki: 19.2 nM
Histone deacetylase 11
  Ki: 12.8 nM
COLO 205
  IC50: 140 nM
HCT-116 [10]
  inhibition in vivo at 130 mg/kg: 89%
Mus musculus [11]
  Activity: 8.7%
[12]
  MTD: 130 mg/kg
HCT-116 [13]
  inhibition in vivo at 70 mg/kg: 59%
Mus musculus [14]
  Activity: 0.5%
